Data set [1] concerns primary hepatocytes in sandwich culture. The experiment in a line: Liver specific toxicity assays in primary hepatocytes in sandwich culture (GSH, mitochondria, oxidative stress, GGT). Format: cell-based. The settings on record: FIG. 11. The procedure: (§1) Cell Culture: Primary hepatocytes in sandwich culture were obtained freshly-plated from outside vendors and used to assess general liver toxicity. Hepatocytes were plated in 24-well or 96-well microplates at a density of 400 K/well and 100 K/well, respectively, and kept at 37° C., 5% CO2 in a humidified incubator. Sandwich culture plates have a collagen substratum with Matrigel overlay, optimal growth conditions for hepatocytes with intact and functional bile canalicular networks. After 3 days in culture, cells were shipped to the inventor. Upon receipt, medium was replaced with fresh Williams E medium (Sigma) containing 10% bovine serum (Invitrogen), and cells were acclimated overnight prior to treatment (Hewitt et al. 2007).
(§2) Cytotoxicity: ATP was measured using an ATP-Lite kit from Perkin Elmer according to the manufacturer's instructions. Membrane integrity was monitored by determining the presence of α-Glutathione S-transferase (α-GST), released into the culture medium using an ELISA assay (Argutus Medical). Intracellular glutathione levels were determined essentially as described by Griffith (1980) with modifications. Cell mass in each well was measured with propidium iodide (PI). This specific nucleic acid binding dye fluoresces when intercalated within the nucleic acids. After incubation, the test compound was removed by aspiration of the media and Triton X-100 solution containing propidium iodide was added to permeabilized cells.
8-ISO levels were determined using an ELISA. 8-ISO is a member of a family of eicosanoids produced non-enzymatically by random oxidation of tissue phospholipids by oxygen radicals. Therefore, an increase in 8-ISO is an indirect measure of increased lipid peroxidation (Vacchiano and Tempel, 1994).
γ-Glutamyltransferase (GGT) activity was measured using the Catachem GGT kit with modifications. After completion of exposures, media was removed from the plates and cell and cell supernatants were stored at −80° C. until analyzed.

In data set [2] the target is hOCT2 (Homo sapiens, UniProt O15244). The settings on record: hRPTCs; FIG. 4. The procedure:
(§3) Cell Culture: Two cell types were used in this Example—primary human renal proximal tubule cells (hRPTCs) and a well characterized porcine renal proximal tubule (LLC-PK1) cell line. The hRPTCs were obtained from Lonza, Clonetics (Walkersville, Md.) and the LLC-PK1 was obtained from ATCC.
(§4) Establishing Transwell Cultures: The hRPTCs were seeded into Corning transwell-COL 24-well tissue culture plates at a density of 7.4×10^4 cells/well. LLC-PK1 cells were seeded into BD 351181 transwell 24-well tissue culture plates at a cell density of 1.65×10^5 cells/well (FIG. 3). On day 6 of incubation, formation of tight-junctions between cells was determined by Lucifer Yellow and Mannitol. The growth medium used with the hRPTCs was modified DMEM/Ham's F-12, and the medium used for LLC-PK1 was DMEM with 10% FBS (Elwi et al. 2009; Morshed and McMartin, 1995).
(§5) Transport Assays: To determine transporter specific activity, several known substrates were selected: TEA (OCT1 and OCT2), Digoxin (OATP4C1), Metformin (OCT2 basolateral and MATE1 apical). LLC-PK1 cells were seeded in BD 351181 24-well tissue culture plates at a cell density of 1.65×10^5 cells/well. After culturing for 6 days, apical and basolateral chambers were washed at room temperature with D-PBS buffer (containing 137 mM NaCl, 3 mM KCl, 8 mM Na2HPO4, 1.5 mM KH2PO4, 1 mM CaCl2, 0.5 mM MgCl2 and 5 mM D-glucose; pH 7.4) then incubated with non-radiolabeled substrate on both apical and basolateral sides for 60 minutes. Media was removed and the cells rinsed with buffer prior to adding the radiolabeled substrate. Radiolabeled substrate (with or without inhibitor) was added to apical or basolateral chambers, and samples were collected from the opposite side at 40 minutes. Cellular uptake was determined by washing the transwell membranes containing the cells twice with ice-cold D-PBS, then transferring the insert with cells to scintillation vials containing 2% Triton X-100. Scintillation was counted using Opti-Flour (Perkin Elmer) and in a Packard Tri-Carb 2100TR liquid scintillation counter.

Data set [3] concerns the target OCT2 (Sus scrofa, UniProt O02713). Conditions: Cimetidine at 500 μM or 1 mM; LLC-PK1 cell model; FIG. 4. The procedure: as §3, §4, §5
Data set [4] has as its system CYP3A. The experiment in a line: Inhibition of CYP3A. Format: in vitro ADME. The settings on record: Table 2; number or Y/N, unit inferred.
In data set [5] the test system is primary hepatocytes in sandwich culture; Rat (H4IIE) cells. The experiment in a line: General cell health / mitochondrial function (ATP) cytotoxicity assays of the liver toxicity screen. The settings on record: for IC50: Rattus norvegicus, H4IIE, Table 2, unit inferred. Format: cell-based. The procedure:
as §1
Rat (H4IIE) cells were seeded in flat bottom 96-well plates at a density of 10,000 cells/well in Eagles Minimum Essential Medium (Sigma Chemical) supplemented with 10% bovine serum and 10% calf serum (Invitrogen). Cells were allowed to equilibrate for approximately 48 hours to allow cells to move into a stable growth phase prior to treatment.
as §2

Data set [6] concerns the target T1, BSEP (UniProt O95342, species not given).
T1 construct: rows headed: BSEP
The experiment in a line: BSEP cell-free transport assay. Conditions: BSEP cell-free transport assay (GenoMembrane); Table 2; number or Y/N for inhibition, unit inferred. Format: biochemical, Rat or human. On the procedure:
(§6) Rat or human BSEP cell-free assay were performed according to GenoMembrane protocol for BSEP transport analysis.

For data set [7] the following is noted: Table 2; Y/N; cited from earlier work.
For data set [8], the system named is hRPTC. The experiment in a line: Cisplatin cytotoxicity in primary human renal proximal tubule cells (ATP, cell number, membrane integrity, GGT). Format: cell-based. The settings on record: FIG. 6, read-out: IC50 for ATP depletion. The procedure:
Cytotoxicity: Cell viability was determined by measuring intracellular ATP levels with ATP-Lite from Perkin Elmer according to the manufacturer's instructions. Cell proliferation was determined from bromodeoxyuridine (BrdU) incorporation. Membrane integrity was measured using glutathione S-transferase (GST) as a leakage marker (Argutus). The GST assay was done according to the manufacturer's instructions. Gamma-glutamyl transferase activity (GGT) was measured using the Catachem GGT kit with modifications.

The test system of data set [9] is primary hepatocytes in sandwich culture; Rat (H4IIE) cells. The experiment in a line: Intracellular glutathione (GSH) levels, liver toxicity screen. Format: cell-based. The settings on record: FIG. 12, read-out: depleting intracellular glutathione levels, IC50. On the procedure: as §1, with “2007). […]” for “2007).”
Cytotoxicity: ATP was measured using an ATP-Lite kit from Perkin Elmer according to the manufacturer's instructions. Membrane integrity was monitored by determining the presence of α-Glutathione S-transferase (α-GST), released into the culture medium using an ELISA assay (Argutus Medical). Intracellular glutathione levels were determined essentially as described by Griffith (1980) with modifications. Cell mass in each well was measured with propidium iodide (PI). […]

Data set [10] deals with BSEP. The experiment in a line: BSEP cell-free transport assay. Conditions: Table 2; number or Y/N for inhibition, unit not given. Format: biochemical, Rat or human. On the procedure: as §6

OCT2, sequence (O02713 whole entry): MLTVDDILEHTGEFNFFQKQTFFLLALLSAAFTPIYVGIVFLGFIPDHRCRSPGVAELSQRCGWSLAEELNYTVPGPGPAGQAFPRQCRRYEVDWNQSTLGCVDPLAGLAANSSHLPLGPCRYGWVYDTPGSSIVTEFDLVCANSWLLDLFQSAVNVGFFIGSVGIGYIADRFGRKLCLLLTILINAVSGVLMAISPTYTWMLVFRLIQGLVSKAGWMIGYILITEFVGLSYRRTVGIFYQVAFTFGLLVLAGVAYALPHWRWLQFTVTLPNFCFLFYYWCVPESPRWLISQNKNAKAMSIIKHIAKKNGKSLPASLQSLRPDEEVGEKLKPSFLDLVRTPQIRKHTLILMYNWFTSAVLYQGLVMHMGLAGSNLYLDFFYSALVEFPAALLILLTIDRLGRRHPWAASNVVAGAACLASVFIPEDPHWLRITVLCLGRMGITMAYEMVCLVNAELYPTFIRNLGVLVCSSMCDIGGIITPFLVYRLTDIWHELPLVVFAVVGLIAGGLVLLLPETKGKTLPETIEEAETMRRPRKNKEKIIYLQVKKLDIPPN
hOCT2, sequence (O15244 whole entry): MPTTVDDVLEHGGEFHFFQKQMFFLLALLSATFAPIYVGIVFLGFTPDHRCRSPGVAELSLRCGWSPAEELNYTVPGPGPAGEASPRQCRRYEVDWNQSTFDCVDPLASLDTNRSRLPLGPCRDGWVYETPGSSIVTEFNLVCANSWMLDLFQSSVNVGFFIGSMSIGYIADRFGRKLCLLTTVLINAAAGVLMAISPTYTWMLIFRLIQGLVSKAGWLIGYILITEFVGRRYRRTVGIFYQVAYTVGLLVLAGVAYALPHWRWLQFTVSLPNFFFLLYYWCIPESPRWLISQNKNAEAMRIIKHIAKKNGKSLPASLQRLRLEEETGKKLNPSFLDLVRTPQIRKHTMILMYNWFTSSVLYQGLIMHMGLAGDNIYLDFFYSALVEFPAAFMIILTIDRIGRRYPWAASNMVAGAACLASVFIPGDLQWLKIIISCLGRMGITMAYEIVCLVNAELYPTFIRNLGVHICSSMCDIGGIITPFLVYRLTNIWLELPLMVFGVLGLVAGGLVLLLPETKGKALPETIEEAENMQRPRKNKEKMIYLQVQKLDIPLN

In the case of `S=C=Nc1cccc2ccccc12` [ANIT, α-naphthyl-isothiocyanate], in data set [1], the “canalicular membrane integrity (GGT release)” value was “damaged”, the glutathione result is reported as “decreased”, the mitochondria result is on record as “disrupted” and the oxidative stress entry is “increased”.
Consider `CN/C(=N/CCSCc1nc[nH]c1C)NC#N` [Cimetidine], for which, in [2], the “basolateral-to-apical flux (metformin), effect of inhibitor” value is on record as “not inhibited” and the “cellular uptake (metformin), effect of inhibitor” value is “inhibited”. Also, in data set [3], the “basolateral to apical flux (metformin), effect of inhibitor” value was “inhibited” and the “cellular uptake (metformin), effect of inhibitor” value is “inhibited”.
For the compound `CCC(C)n1ncn(-c2ccc(N3CCN(c4ccc(OCC5COC(Cn6cncn6)(c6ccc(Cl)cc6Cl)O5)cc4)CC3)cc2)c1=O` (stereo not shown) [Itraconazole], the results for the IC50 in data set [4] and in data set [5] were 2.3 µM and 150 µM, respectively.
As for `CCc1ccc(CCOc2ccc(CC3SC(=O)NC3=O)cc2)nc1` (stereo not shown) [Pioglitazone], the IC50 (usually the concentration that gives 50% inhibition) in data set [6] was 5 µM; in data set [5] it was greater than 300 µM. For the same compound, the “Clin Cholestatic” value in [7] was “Y-reversible”.
For the compound `CN(CCOc1ccc(CC2SC(=O)NC2=O)cc1)c1ccccn1` (stereo not shown) [Rosiglitazone], the concentration for half-maximal inhibition (IC50) in [6] was 8 µM; in data set [5], greater than 300 µM.
Take `N.N.[Cl][Pt][Cl]` [cisplatin]: in [8], the 50% inhibitory concentration (IC50) is roughly 80 µM.
In the case of `CCc1nn(CCCN2CCN(c3cccc(Cl)c3)CC2)c(=O)n1CCOc1ccccc1` [nefazodone], the IC50 in data set [9] is less than 50 µM. Also, the BSEP entry in data set [10] is listed as “inhibition”. Besides, the “general cell health, toxicity relative to the other non-tricyclic antidepressants” value in data set [5] (FIG. 12, comparison of three non-tricyclic antidepressants) was “most toxic”.

The values above are taken from patent US20120179381A1, “TOXICITY SCREENING METHODS” (priority 2010, published 2012).
